Measurements as given in patent publication US20160050958A1, “IMPROVED SWEETENER” (TATE & LYLE INGREDIENTS AMERICAS LLC, priority 2013, published 2016).

Assays:
[1] = Round table sweetness evaluation by test panelists (SEV determination against sucrose references); settings: samples made to equal sweet 10 SEV in neutral pH water, room temperature; references 4-14% sucrose
Procedure: Round table evaluations were performed with test panelists. Equal sweet 10 SEV concentrations in neutral pH water were made for allulose, AceK and fructose, as well as a composition comprising allulose, AceK and fructose. The components of the test compositions are described in the below tables. The mixed compositions were calculated using the Beidler mixture equation for the sweeteners. The Beidler mixture equation for sweeteners is as follows: […]
The concentration of each component in the mixture in ppm is divided by SEV (c/R) and is plotted against concentration, c. The slope of the linear regression is […]. The y-intercept of the linear regression multiplied by Rmax is the half-maximal sweetness concentration, 1/K. Rmax and 1/K are the two parameters used in the Beidler equation
The equal-molar mixture was tested against reference samples for the panelists to determine SEV values. […] The test samples were served in 2 ounce soufflé cups (approximately 60 ml) coded with 3-digit codes at room temperature. A two minute wait period between samples was enforced. Water and unsalted crackers was available for the panelists to clear their palates before and during testing. EyeQuestion was used for ballot development and recording of results. Results were collected in EyeQuestion for calculating approximate SEV level of each test sample.
The test products analyzed in this experiment are described below in Table 1.

[2] = % of the sweetness of sucrose; cited from earlier work

| Compound | Mean sucrose equivalent value (SEV) [1] | Median sucrose equivalent value (SEV) [1] | Sweetness relative to sucrose [2] |
| --- | --- | --- | --- |
| CC1=CC(=O)[N-]S(=O)(=O)O1.[K+] [AceK, potassium salt of 6-methyl-1,2,3-oxathiazine-4(3H)-one 2,2-dioxide] | 9.286 | 8 | – |
| O=C(CO)C(O)C(O)C(O)CO (stereo not shown) [Allulose, allulose] | 10.14 | 10 | around 70% |
| O=C(CO)[C@@H](O)[C@H](O)[C@H](O)CO [Fructose, fructose] | 10.14 | 10 | – |
